# Data taken from US20250296953A1, “3,4-THIAZOLO-STEROIDS AND METHODS OF MAKING AND USING THE SAME” (Arkansas State University - Jonesboro, priority 2018, published 2025).
# Where two headings read alike, the source gives them in different places.
# Experiments:
# [1] = test system: 60 different human tumor cell lines; conditions: five dose; for CC50: read-out: LC50
# [2] = test system: RPMI-8226; assay: NCI 60 five dose screen
# [3] = test system: SR; assay: NCI 60 five dose screen
# [4] = NCI-H23 (Non-small Cell Lung Cancer)
# [5] = NCI-H226 (Non-small Cell Lung Cancer)
# [6] = NCI-H322M (Non-small Cell Lung Cancer)
# [7] = NCI-H460 (Non-small Cell Lung Cancer)
# [8] = NCI-H522 (Non-small Cell Lung Cancer)
# [9] = RPMI-8226 (Leukemia), five dose
substance,measurement,setting,value
"(1S,2R,13R,14S,18S)-7-(2,4-dimethylanilino)-2,18-dimethyl-6-thia-8-azapentacyclo[11.7.0.02,10.05,9.014,18]icosa-5(9),7,10-trien-17-one [IIa.14]",GI50,[1]; MDA-MB-468 (Breast Cancer),1.93 µM
same,TGI,[1]; MDA-MB-468 (Breast Cancer),3.93E−6
same,GI50,[1]; MOLT-4 (Leukemia),2.49 µM
same,TGI,[1]; MOLT-4 (Leukemia),>1.00E−4
same,GI50,[1]; [4],2.01 µM
same,TGI,[1]; [4],4.85E−6
same,GI50,[1]; [5],2.35 µM
same,GI50,[1]; [6],4.28 µM
same,TGI,[1]; [6],>1.00E−4
same,GI50,[1]; [7],2.7 µM
same,TGI,[1]; [7],8.39E−6
same,GI50,[1]; [8],1.68 µM
same,TGI,[1]; [8],3.28E−6
same,GI50,[1]; NCI/ADR-RES (Ovarian Cancer),2.9 µM
same,TGI,[1]; NCI/ADR-RES (Ovarian Cancer),>1.00E−4
same,GI50,[1]; OVCAR-3 (Ovarian Cancer),2.18 µM
same,TGI,[1]; OVCAR-3 (Ovarian Cancer),5.03E−6
same,GI50,[1]; OVCAR-4 (Ovarian Cancer),2.83 µM
same,TGI,[1]; OVCAR-4 (Ovarian Cancer),>1.00E−4
same,GI50,[1]; OVCAR-5 (Ovarian Cancer),2.9 µM
same,TGI,[1]; OVCAR-5 (Ovarian Cancer),>1.00E−4
same,GI50,[1]; OVCAR-8 (Ovarian Cancer),2.63 µM
same,TGI,[1]; OVCAR-8 (Ovarian Cancer),7.26E−6
same,GI50,[1]; PC-3 (Prostate Cancer),1.86 µM
same,TGI,[1]; PC-3 (Prostate Cancer),4.53E−6
same,GI50,[1]; RXF 393 (Renal Cancer),1.74 µM
same,TGI,[1]; RXF 393 (Renal Cancer),3.23E−6
same,GI50,[1]; SF-268 (CNS Cancer),2.77 µM
same,GI50,[1]; SK-MEL-2 (Melanoma),2.19 µM
same,TGI,[1]; SK-MEL-2 (Melanoma),4.74E−6
same,GI50,[1]; SK-MEL-5 (Melanoma),1.86 µM
same,TGI,[1]; SK-MEL-5 (Melanoma),3.73E−6
same,GI50,[1]; SK-MEL-28 (Melanoma),2.31 µM
same,TGI,[1]; SK-MEL-28 (Melanoma),6.08E−6
same,GI50,[1]; SK-OV-3 (Ovarian Cancer),9.85 µM
same,TGI,[1]; SK-OV-3 (Ovarian Cancer),>1.00E−4
same,GI50,[1]; SN12C (Renal Cancer),2.17 µM
same,TGI,[1]; SN12C (Renal Cancer),5.06E−6
same,GI50,[1]; SNB-19 (CNS Cancer),2.12 µM
same,TGI,[1]; SNB-19 (CNS Cancer),5.09E−6
same,GI50,[1]; SNB-75 (CNS Cancer),2.19 µM
same,TGI,[1]; SNB-75 (CNS Cancer),9.75E−5
same,GI50,[1]; SW-620 (Colon Cancer),2.7 µM
same,GI50,[1]; T-47D (Breast Cancer),2.89 µM
same,TGI,[1]; T-47D (Breast Cancer),>1.00E−4
same,GI50,[1]; TK-10 (Renal Cancer),2.46 µM
same,TGI,[1]; TK-10 (Renal Cancer),6.70E−6
same,TGI,[1]; U251 (CNS Cancer),3.21E−6
same,GI50,[1]; UACC-62 (Melanoma),1.72 µM
same,TGI,[1]; UACC-62 (Melanoma),3.94E−6
same,GI50,[1]; UACC-257 (Melanoma),3.7 µM
same,TGI,[1]; UACC-257 (Melanoma),>1.00E−4
same,GI50,[1]; UO-31 (Renal Cancer),1.34 µM
same,TGI,[1]; UO-31 (Renal Cancer),2.86E−6
same,CC50,[1]; 786-0 (Renal Cancer),5.84 µM
same,CC50,[1]; A498 (Renal Cancer),> 100 µM
same,CC50,[1]; A549/ATCC (Non-small Cell Lung Cancer),> 100 µM
same,CC50,[1]; BT-549 (Breast Cancer),5.8 µM
same,CC50,[1]; CAKI-1 (Renal Cancer),> 100 µM
same,CC50,[1]; CCRF-CEM (Leukemia),> 100 µM
same,CC50,[1]; COLO 205 (Colon Cancer),> 100 µM
same,CC50,[1]; DU-145 (Prostate Cancer),> 100 µM
same,CC50,[1]; EKVX (Non-small Cell Lung Cancer),> 100 µM
same,CC50,[1]; HCT-15 (Colon Cancer),> 100 µM
same,CC50,[1]; HCT-116 (Colon Cancer),5.46 µM
same,CC50,[1]; HL-60(TB) (Leukemia),> 100 µM
same,CC50,[1]; HOP-62 (Non-small Cell Lung Cancer),> 100 µM
same,CC50,[1]; HOP-92 (Non-small Cell Lung Cancer),8.68 µM
same,CC50,[1]; HT29 (Colon Cancer),> 100 µM
same,CC50,[1]; IGROV1 (Ovarian Cancer),> 100 µM
same,CC50,[1]; K-562 (Leukemia),> 100 µM
same,CC50,[1]; KM12 (Colon Cancer),≥ 100 µM
same,CC50,[1]; LOX IMVI (Melanoma),5.96 µM
same,CC50,[1]; MALME-3M (Melanoma),> 100 µM
same,CC50,[1]; MCF7 (Breast Cancer),> 100 µM
same,CC50,[1]; MDA-MB-231/ATCC (Breast Cancer),> 100 µM
same,CC50,[1]; MDA-MB-435 (Melanoma),> 100 µM
same,CC50,[1]; MDA-MB-468 (Breast Cancer),8.01 µM
same,CC50,[1]; MOLT-4 (Leukemia),> 100 µM
same,CC50,[1]; [4],> 100 µM
same,CC50,[1]; [5],> 100 µM
same,CC50,[1]; [7],> 100 µM
same,CC50,[1]; [8],6.43 µM
same,CC50,[1]; NCI/ADR-RES (Ovarian Cancer),> 100 µM
same,CC50,[1]; OVCAR-3 (Ovarian Cancer),38.2 µM
same,CC50,[1]; OVCAR-4 (Ovarian Cancer),> 100 µM
same,CC50,[1]; OVCAR-5 (Ovarian Cancer),> 100 µM
same,CC50,[1]; OVCAR-8 (Ovarian Cancer),> 100 µM
same,CC50,[1]; RXF 393 (Renal Cancer),6.01 µM
same,CC50,[1]; SF-268 (CNS Cancer),> 100 µM
same,CC50,[1]; SK-MEL-2 (Melanoma),22.7 µM
same,CC50,[1]; SK-MEL-5 (Melanoma),7.47 µM
same,CC50,[1]; SK-MEL-28 (Melanoma),> 100 µM
same,CC50,[1]; SK-OV-3 (Ovarian Cancer),> 100 µM
same,CC50,[1]; SN12C (Renal Cancer),> 100 µM
same,CC50,[1]; SNB-19 (CNS Cancer),> 100 µM
same,CC50,[1]; SNB-75 (CNS Cancer),> 100 µM
same,CC50,[1]; SW-620 (Colon Cancer),> 100 µM
same,CC50,[1]; T-47D (Breast Cancer),> 100 µM
same,CC50,[1]; TK-10 (Renal Cancer),> 100 µM
same,CC50,[1]; U251 (CNS Cancer),6.1 µM
same,CC50,[1]; UACC-62 (Melanoma),9.02 µM
same,CC50,[1]; UACC-257 (Melanoma),> 100 µM
same,CC50,[1]; UO-31 (Renal Cancer),6.12 µM
same,GI50,[2]; [9],2.43 µM
same,TGI,[2]; [9],6.25E−6
same,50% growth inhibition (GI50),[2]; leukemia cell line RPMI-8226,submicromolar
same,CC50,"[2]; read-out: LC50, RPMI-8226 (Leukemia), five dose",> 100 µM
same,GI50,"[3]; SR (Leukemia), five dose",2.32 µM
same,TGI,"[3]; SR (Leukemia), five dose",>1.00E−4
same,50% growth inhibition (GI50),[3]; leukemia cell line SR,submicromolar
same,CC50,"[3]; read-out: LC50, SR (Leukemia), five dose",> 100 µM
